Assay results reported in patent publication US12551494B2, “Pharmaceutical composition for preventing or treating dengue fever” (SEOUL NATIONAL UNIVERSITY R&DB FOUNDATION, priority 2021, dated 2026).
Several values for one entry are separate records, joined by “and”; a condition that tells them apart may be missing. Identical values can stand only once.

What was measured:
DENV serotype 2 [1] = test: GOViRA (graphene oxide-based viral RNA analysis) fluorescence antiviral assay / drug library screening in Vero E6 cells; assay type: cell-based, dengue virus
Method: Vero E6 cells were seeded onto 96-well, black wall, optical bottom plates at a density of 1.5×10^4 cells per well and incubated with DMEM supplemented with 10% FBS and P/S. After overnight incubation, the cells were briefly washed with 1× PBS and infected with DENV. Next, 20 pmol vPNA or β-actin PNA probe was mixed with 1.2 μg DRGON solution for 10 min at RT. The Vero E6 cells were treated with the PNA-DRGON complexes for 5 h. The plates were incubated for up to 72 h, and cell nuclei were counterstained with Hoechst 33342. Fluorescent images were obtained by the IN Cell Analyzer 2000 (GE Healthcare) and DeltaVision Elite (GE Healthcare) imaging system. The quantification of data was processed with the IN Cell Developer software (https://cyvitalifesciences.com).
For the drug library screening experiments, 1.5×10^4 Vero E6 cells in a total volume of 100 μL per well were seeded onto 96-well, black wall, optical bottom plates using DMEM media supplemented with 10% FBS and P/S and incubated overnight. Next, the cells were pretreated with 50 μL of experimental compounds or vehicle in DMEM supplemented with 2% FBS and P/S and incubated 1 h at 37° C. Next, 50 μL of DENV (a final MOI of 0.5) were added to each well, resulting in a 10 μM final concentration for each compound and cells were incubated for 48 h.
Infection was stopped by rinsing each well with 1× PBS, and the infected cells were treated with the PNA-DRGON complexes for 5 h at 37° C. and then briefly washed with 1× PBS. Fluorescent images were obtained by the IN Cell Analyzer 2000, and quantification of the data was processed using the IN Cell Developer software.
To determine its systemic reliability as a high-throughput screening assay, we used Z′-factor as a statistical parameter. […] To further verify whether the GOViRA system is capable of the quantitative analysis of antiviral activity, we utilized the system to investigate the cellular effect caused by a model representative antiviral compound, Ribavirin. […]

Vero E6 cells = test: Cell viability test (CCK-8 assay); assay type: cell-based
Method: The CCK-8 assay was performed according to the manufacturer's instructions. Vero E6, Huh7, and A549 cells were seeded in 96-well culture plates with 100 μL of complete media. After 24 h of incubation, the cells were treated with nanomaterials or drug in serially diluted concentrations for 48 h. The cells were rinsed with 1× PBS twice, and CCK-8 reagent was treated at a concentration of 10% (v/v) and incubated for 1 h. The optical density at 450 nm was measured by SynergyMx (Biotek) in the absorbance mode.

PR = test: qRT-PCR analysis of PR expression in A549 cells; assay type: cell-based; conditions: 24 h of incubation
Method: (§1) Total RNA was extracted using Trizol (Invitrogen). The cDNA samples were prepared by reverse transcription using SuperScript II Reverse Transcriptase (Invitrogen). The synthesized cDNA samples were subjected to qRT-PCR with primers specific for each gene by using the PowerUp SYBR Green Master Mix (Applied Biosystems) and CFX Connect (Bio-Rad).
A time-of-addition experiment was performed to determine which time point of the viral infection stage is affected by the administration of ulipristal. Because ulipristal is widely known as an SPRM compound, we chose a cell line without PR expression to exclude the influence of PR signaling on the time-of-addition experiment. […] After 24 h of incubation, the RNA expression level of each group was analyzed. There was no PR expression in the NT group (FIG. 13). […] Therefore, we examined the mode of action of ulipristal using the A549 cell line.

DENV [2] = test: DENV infection in A549 cells (qRT-PCR of viral RNA, E protein immunostaining); assay type: cell-based, dengue virus
Method: as §1
(§2) We further validated the antiviral activity of ulipristal using Huh7 (liver carcinoma cell line) and A549 (lung carcinoma cell line) cell lines as hosts for the DENV infection. Both cell monolayers were analyzed with qRT-PCR to observe the relative DENV RNA level. […] Moreover, the fluorescence signal of the viral E protein from immunostaining also was reduced by the ulipristal treatment (FIG. 11C).

DENV serotype 2 [3] = test: Focus-forming assay (FFA) in Vero E6 cells; assay type: cell-based, dengue virus
Method: The virus was titrated by FFA in Vero E6 cells. Ten-fold serial diluted virus in DMEM supplemented with 2% FBS and P/S was added onto confluent Vero E6 cell monolayers attached to 96-well, black wall, optical bottom plates (Corning) and incubated for 1 h. After the incubation, the wells were overlaid with 100 μL of DMEM with 10% FBS, P/S, and methylcellulose and incubated for 2 days. Following the incubation, cell monolayers were fixed with 4% paraformaldehyde and then treated with blocking solution for 1 h. Samples were then treated with the anti-Dengue virus E protein antibody (GeneTex, GTX127277), followed by FITC-labeled goat anti-mouse IgG secondary antibody (Sigma-Aldrich, F0257).
(§3) Standard assays were done to check the antiviral effect and cytotoxicity of ulipristal in vitro. The activity of ulipristal against DENV was evaluated by both FFA and qRT-PCR. For the FFA, Vero E6 cells were infected with DENV in the presence of various concentrations of ulipristal.
(§4) The anti-DENV activity was assessed by immunostaining with antibodies specific to the DENV E protein. […] The cytotoxicity of the compound in the Vero E6 cells was determined by the CCK-8 assay.

DENV [4] = test: Time-of-addition assay in A549 cells; assay type: cell-based, dengue virus; conditions: 48 h p.i.
Method: A549 cells were seeded onto 24-well plates. After incubation overnight, cells were treated with ulipristal at the various time points and inoculated with DENV. At 48 h p.i., the cells were washed with 1× PBS and processed for qRT-PCR.
A549 cells were treated with ulipristal in three different conditions: treatment before the infection (pre-treatment), treatment along with the infection (co-treatment), and treatment after the infection (post-treatment) (FIG. 14A). […] Furthermore, the degree of inhibitory effect was decreased as the ulipristal administration was delayed (FIG. 14B).

DENV (KBPV-VR-29) = test: Murine DENV infection model (AG129 mice); assay type: in vivo
Method: AG129 mice (8-10 weeks old, female) were purchased from Marshall BioResources and housed under pathogen-free conditions. Animal research was approved by the Institutional Animal Care and Use Committee of Seoul National University and was performed according to the guidelines of the recommendations from the Association for Assessment and Accreditation of Laboratory Animal Care.
The murine DENV infection model was as described in previous study (Park, S. J., Kim, J., Kang, S., Cha, H. J., Shin, H., Park, J., Jang, Y. S., Woo, J. S., Won, C., Min, D. H., 2020. Sci Adv 6 (22), eaaz8201.). AG129 mice were exposed with a target dose of […] of the DENV by intraperitoneal injection. One hour after the challenge, the animals were treated with ulipristal. The compound was dissolved in sesame oil at a 10× concentration and further diluted in 1× PBS. Ulipristal was administered to the animals by intraperitoneal injection.
Animals in the vehicle control groups were administered a solution with no drug. The animals were monitored for weight, morbidity (ruffled fur, hunched posture, etc.), and survival daily for a total of 14 days after infection. Mice with a weight <80% of their initial body weight were humanely euthanized. At 3 days p.i., mice were sacrificed from each group. Blood and organ samples were collected. Blood was clarified by centrifugation, and viremia was determined by qRT-PCR. Organs were homogenized, and total RNA was extracted using Trizol. The relative DENV RNA level from each organ was determined by qRT-PCR.
Organ samples were fixed with 4% paraformaldehyde and embedded in paraffin. Paraffin sections were stained with H&E at the pathology core facility in the Center for Medical Innovation, Seoul National University Hospital, Korea.
The DENV strain we used (KBPV-VR-29) has been reported as a mouse-adapted virus strain. […] One hour after the infection, the animals were treated with ulipristal or vehicle over 14 days, and survival was monitored during that period.
Ulipristal was given at a dose of 15 mg/kg every day through intraperitoneal injection.

DENV [5] = test: DENV infection in Huh7 cells (qRT-PCR of viral RNA, E protein immunostaining); assay type: cell-based, dengue virus
Method: as §1, §2

DENV [6] = test: qRT-PCR analysis of viral RNA in DENV-infected Vero E6 cells; assay type: cell-based, dengue virus; conditions: dose-dependent treatment
Method: as §1, §3, §4

[7] = 15 mg/kg every day i.p., day 3 p.i.

## CC(=O)[C@@]1(O)CC[C@H]2[C@@H]3CCC4=CC(=O)CCC4=C3[C@@H](c3ccc(N(C)C)cc3)C[C@@]21C [ulipristal]
DENV serotype 2 [1]; 10 μM, Vero E6 cells, pretreated 1 h, MOI 0.5, 48 h
  fluorescence signal decrease in drug library screening: < 25%
Vero E6 cells; 10 μM
  cell viability in drug library screening: minimal effects on cell viability
Vero E6 cells; 48 h
  cytotoxicity / cell viability (CCK-8): no impact on cell viability
PR
  levels of PR expression (qRT-PCR): did not influence the levels of PR expression
DENV [2]
  fluorescence signal of viral E protein (immunostaining): reduced
  relative DENV RNA level (qRT-PCR): inhibited the DENV infection in both cell lines dose-dependently
DENV serotype 2 [3]; DENV serotype 2, read-out: half-effective concentration (EC50), anti-DENV activity by FFA
  EC50: 8.3 µM and 8.28 µM
DENV serotype 2 [3]; various concentrations
  number of foci (FFA, DENV E protein immunostaining): number of foci decreased in a dose-dependent manner
DENV [4]; co-treatment (along with the infection)
  intracellular viral RNA level, antiviral effect: antiviral effect by the administration of the drug was observed
DENV [4]; post-treatment (after the virus inoculation)
  intracellular viral RNA level, antiviral effect: less inhibitory effect
DENV [4]; pre-treatment (before the infection)
  intracellular viral RNA level, antiviral effect: antiviral effect by the administration of the drug was observed
DENV (KBPV-VR-29); 15 mg/kg every day i.p.
  spleen histology (H&E), white-pulp/red-pulp boundary loss: boundary loss was decreased
DENV (KBPV-VR-29); [7]
  viral RNA load in organs (spleen, lung, liver, large intestine): significantly decreased
  viral RNA load in the small intestine, difference vs vehicle: not statistically significant
DENV (KBPV-VR-29); 15 mg/kg every day i.p., day 3 p.i., vs control group
  viremia in the blood (qRT-PCR): significantly reduced viremia
DENV (KBPV-VR-29); 15 mg/kg every day i.p., vs control group
  liver histology (H&E): nuclear pleomorphism of hepatocytes, dilatation of sinusoids, focal necrosis: significant reduction of such symptoms
DENV (KBPV-VR-29); 15 mg/kg every day, intraperitoneal, 14 days, log-rank test
  survival: statistically significant survival benefit (P=0.0007)
DENV (KBPV-VR-29); 15 mg/kg every day, intraperitoneal, DENV 1×107 FFU i.p., 14 days
  relative body weight change and disease symptoms: Compared to the ulipristal-treated group, the control group exhibited a huge weight loss
DENV [5]
  fluorescence signal of viral E protein (immunostaining): reduced
  relative DENV RNA level (qRT-PCR): inhibited the DENV infection in both cell lines dose-dependently
DENV [6]
  relative expression level of viral RNA (qRT-PCR): active against DENV

## NC(=O)c1ncn([C@@H]2O[C@H](CO)[C@@H](O)[C@H]2O)n1 [ribavirin, Ribavirin]
DENV serotype 2 [1]; DENV-infected Vero E6 cells
  fluorescence signal (GOViRA), dose response: serial decrease in the fluorescence signal dose-dependently
DENV serotype 2 [1]; Dengue virus, Vero C1008, DENV-infected Vero E6 cells, concentrations 6.25 μM to 400 μM, PNA-DRGON complex after 48 hours, read-out: EC50 value for DENV serotype 2 (GOViRA system)
  EC50: 49.2 ± 0.2 µM
